This is an account of results in ChEMBL document CHEMBL1135576, “Synthesis and biological characterization of L-N(6)-(1-iminoethyl)lysine 5-tetrazole-amide, a prodrug of a selective iNOS inhibitor” (J Med Chem, 2002).

Assay [1] has as its target T1, Nitric oxide synthase, inducible (Homo sapiens, UniProt P35228). The assay is described as follows: The concentration required for inhibition of Human inducible nitric oxide synthase (iNOS) isoform.
The target in assay [2] is Nitric oxide synthase 1 (Homo sapiens, UniProt P29475). Nature of the assay: The concentration required for inhibition of Human Neuronal nitric oxide synthase (nNOS).
Assay [3] deals with T1, Nitric oxide synthase, inducible. Nature of the assay: The concentration required for inhibition of Human inducible nitric oxide synthase (iNOS) isoform, expressed as IC50.

T1 sequence (P35228 whole entry, canonical isoform): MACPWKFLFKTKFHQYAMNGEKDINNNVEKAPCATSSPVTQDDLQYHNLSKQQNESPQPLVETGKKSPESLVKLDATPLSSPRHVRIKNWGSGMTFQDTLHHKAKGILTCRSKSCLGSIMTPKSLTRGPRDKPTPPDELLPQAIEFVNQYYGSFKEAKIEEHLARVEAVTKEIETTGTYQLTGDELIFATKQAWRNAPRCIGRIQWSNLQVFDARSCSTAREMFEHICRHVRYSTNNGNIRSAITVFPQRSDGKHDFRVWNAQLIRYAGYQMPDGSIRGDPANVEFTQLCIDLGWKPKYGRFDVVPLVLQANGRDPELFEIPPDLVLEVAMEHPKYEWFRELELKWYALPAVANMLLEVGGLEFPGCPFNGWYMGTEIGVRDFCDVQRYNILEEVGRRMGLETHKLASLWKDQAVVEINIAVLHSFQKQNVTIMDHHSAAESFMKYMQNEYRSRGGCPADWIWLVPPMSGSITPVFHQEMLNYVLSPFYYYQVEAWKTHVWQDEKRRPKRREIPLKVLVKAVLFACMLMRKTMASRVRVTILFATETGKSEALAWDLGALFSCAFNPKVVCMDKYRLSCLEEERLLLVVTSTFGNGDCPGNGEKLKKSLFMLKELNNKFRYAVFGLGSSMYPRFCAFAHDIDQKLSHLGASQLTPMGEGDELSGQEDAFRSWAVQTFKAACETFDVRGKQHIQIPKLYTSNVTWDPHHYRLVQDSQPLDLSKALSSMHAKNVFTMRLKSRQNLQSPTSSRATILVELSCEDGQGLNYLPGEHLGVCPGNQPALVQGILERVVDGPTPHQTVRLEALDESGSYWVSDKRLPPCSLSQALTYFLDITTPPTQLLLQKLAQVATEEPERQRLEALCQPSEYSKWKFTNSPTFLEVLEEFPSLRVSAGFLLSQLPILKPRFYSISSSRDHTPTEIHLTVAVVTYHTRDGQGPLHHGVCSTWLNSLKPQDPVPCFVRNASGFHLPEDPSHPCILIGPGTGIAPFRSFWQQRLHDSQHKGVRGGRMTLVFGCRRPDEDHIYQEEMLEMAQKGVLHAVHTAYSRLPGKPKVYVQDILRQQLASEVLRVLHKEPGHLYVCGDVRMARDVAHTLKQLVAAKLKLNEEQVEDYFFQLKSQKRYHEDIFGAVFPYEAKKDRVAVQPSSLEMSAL
Chain of Nitric oxide synthase 1 (P29475 whole entry, canonical isoform): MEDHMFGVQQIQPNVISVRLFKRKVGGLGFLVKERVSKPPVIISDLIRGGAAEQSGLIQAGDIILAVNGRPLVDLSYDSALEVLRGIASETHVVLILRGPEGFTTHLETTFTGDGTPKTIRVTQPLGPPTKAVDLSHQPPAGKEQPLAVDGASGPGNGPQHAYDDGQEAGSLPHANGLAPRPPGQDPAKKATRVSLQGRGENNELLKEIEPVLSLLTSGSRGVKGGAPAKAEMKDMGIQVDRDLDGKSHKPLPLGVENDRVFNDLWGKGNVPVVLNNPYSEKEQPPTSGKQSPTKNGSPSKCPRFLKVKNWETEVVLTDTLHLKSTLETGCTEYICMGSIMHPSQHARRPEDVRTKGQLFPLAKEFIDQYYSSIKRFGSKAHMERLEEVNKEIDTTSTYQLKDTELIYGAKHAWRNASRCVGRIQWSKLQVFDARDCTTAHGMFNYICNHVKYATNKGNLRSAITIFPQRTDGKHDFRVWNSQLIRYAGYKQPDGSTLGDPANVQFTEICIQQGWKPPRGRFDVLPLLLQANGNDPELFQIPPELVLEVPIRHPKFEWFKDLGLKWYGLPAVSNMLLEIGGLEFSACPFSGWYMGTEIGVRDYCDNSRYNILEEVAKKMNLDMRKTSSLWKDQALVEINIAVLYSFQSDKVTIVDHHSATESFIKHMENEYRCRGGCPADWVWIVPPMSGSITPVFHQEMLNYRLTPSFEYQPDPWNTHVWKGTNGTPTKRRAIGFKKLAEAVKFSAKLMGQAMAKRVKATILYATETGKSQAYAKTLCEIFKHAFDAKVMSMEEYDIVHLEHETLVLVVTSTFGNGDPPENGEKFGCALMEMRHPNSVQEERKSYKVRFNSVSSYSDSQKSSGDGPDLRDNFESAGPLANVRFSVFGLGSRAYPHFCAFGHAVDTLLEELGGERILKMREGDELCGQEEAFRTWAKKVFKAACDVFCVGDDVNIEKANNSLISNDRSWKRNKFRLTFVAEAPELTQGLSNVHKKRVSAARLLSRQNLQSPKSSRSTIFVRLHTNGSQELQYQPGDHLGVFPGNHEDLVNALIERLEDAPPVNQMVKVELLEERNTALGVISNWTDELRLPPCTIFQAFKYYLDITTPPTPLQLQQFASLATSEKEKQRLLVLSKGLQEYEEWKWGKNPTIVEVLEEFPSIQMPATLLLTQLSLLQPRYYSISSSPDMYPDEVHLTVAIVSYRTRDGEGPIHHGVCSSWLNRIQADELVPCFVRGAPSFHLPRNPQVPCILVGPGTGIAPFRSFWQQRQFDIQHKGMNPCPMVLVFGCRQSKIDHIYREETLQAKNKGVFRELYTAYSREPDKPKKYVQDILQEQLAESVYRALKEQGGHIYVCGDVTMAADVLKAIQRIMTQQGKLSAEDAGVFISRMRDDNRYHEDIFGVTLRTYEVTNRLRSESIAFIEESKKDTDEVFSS

One may read the IC50 as the point on the concentration scale where inhibition reaches its midpoint. A higher IC50 goes with weaker potency. As to `CC(=N)NCCCC[C@H](N)C(=O)O`, the IC50 came to 5.9 µM in assay [1] and 35 µM in assay [2].
Turning to `CC(=N)NCCCC[C@H](N)C(=O)Nc1nnn[nH]1`, the IC50 in assay [3] and in assay [2] was above 1850 µM in each case.
